# Source: ChEMBL document CHEMBL1806398, “Benzothiazole-based N-(phenylsulfonyl)amides as a novel family of PPARα antagonists” (Bioorg Med Chem Lett, 2011)
# Legend:
# [1] = biological target: T1, Peroxisome proliferator-activated receptor alpha (Homo sapiens) (UniProt Q07869); assay: Agonist activity at PPARalpha ligand binding domain expressed in HEK293 cells co-expressing GAL4 at 150 uM after 18 hrs by dual-luciferase activity based transactivation assay relative to control; format: cell-based
# T1 sequence (whole entry): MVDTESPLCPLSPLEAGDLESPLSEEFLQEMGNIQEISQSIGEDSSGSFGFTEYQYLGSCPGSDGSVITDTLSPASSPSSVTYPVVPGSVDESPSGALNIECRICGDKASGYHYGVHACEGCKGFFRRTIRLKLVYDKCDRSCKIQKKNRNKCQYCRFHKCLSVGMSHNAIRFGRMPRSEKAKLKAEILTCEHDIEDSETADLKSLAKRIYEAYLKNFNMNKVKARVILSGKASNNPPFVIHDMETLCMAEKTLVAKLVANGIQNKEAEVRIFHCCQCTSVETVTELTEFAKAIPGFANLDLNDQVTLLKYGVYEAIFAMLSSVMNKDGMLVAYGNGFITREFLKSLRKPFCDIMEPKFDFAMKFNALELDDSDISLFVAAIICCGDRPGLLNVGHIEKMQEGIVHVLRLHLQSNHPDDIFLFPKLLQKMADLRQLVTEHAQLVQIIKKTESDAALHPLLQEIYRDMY
# [2] = biological target: T2, Peroxisome proliferator-activated receptor alpha (Homo sapiens, UniProt Q07869); assay: (§1) Antagonist activity at PPARalpha ligand binding domain expressed in HEK293 cells co-expressing GAL4 assessed as inhibition of GW7647-induced transactivation activity after 18 hrs by dual-luciferase assay; format: cell-based
# T2 sequence (Q07869 whole entry): T1 sequence (whole entry)
# [3] = biological target: T1, Peroxisome proliferator-activated receptor alpha (Homo sapiens); assay: Antagonist activity at PPARalpha in human HepG2 cells assessed as inhibition of CPT1A mRNA expression at 150 uM after 48 hrs by RT-PCR analysis relative to control; format: functional, cell-based
# [4] = biological target: T1, Peroxisome proliferator-activated receptor alpha (Homo sapiens); assay: Antagonist activity at PPARalpha in human HepG2 cells assessed as inhibition of GW7647-induced CPT1A mRNA expression at 150 uM after 48 hrs by RT-PCR analysis relative to control; format: functional, cell-based
# [5] = biological target: T2, Peroxisome proliferator-activated receptor alpha; assay: Agonist activity at PPARalpha ligand binding domain expressed in HEK293 cells co-expressing GAL4 after 18 hrs by dual-luciferase activity based transactivation assay; format: cell-based
# [6] = biological target: T1, Peroxisome proliferator-activated receptor alpha (Homo sapiens); assay: as §1; format: cell-based
# [7] = biological target: T1, Peroxisome proliferator-activated receptor alpha (Homo sapiens); assay: Antagonist activity at PPARalpha ligand binding domain expressed in HEK293 cells co-expressing GAL4 assessed as inhibition of GW7647-induced transactivation activity at 1 uM after 18 hrs by dual-luciferase assay relative to control; format: cell-based
# [8] = biological target: T1, Peroxisome proliferator-activated receptor alpha (Homo sapiens); assay: Antagonist activity at PPARalpha ligand binding domain expressed in HEK293 cells co-expressing GAL4 assessed as inhibition of GW7647-induced transactivation activity at 10 uM after 18 hrs by dual-luciferase assay relative to control; format: cell-based
# [9] = biological target: T1, Peroxisome proliferator-activated receptor alpha (Homo sapiens); assay: Antagonist activity at PPARalpha ligand binding domain expressed in HEK293 cells co-expressing GAL4 assessed as inhibition of GW7647-induced transactivation activity at 50 uM after 18 hrs by dual-luciferase assay relative to control; format: cell-based
# [10] = biological target: T1, Peroxisome proliferator-activated receptor alpha (Homo sapiens); assay: Antagonist activity at PPARalpha ligand binding domain expressed in HEK293 cells co-expressing GAL4 assessed as inhibition of GW7647-induced transactivation activity at 100 uM after 18 hrs by dual-luciferase assay relative to control; format: cell-based
# [11] = biological target: T1, Peroxisome proliferator-activated receptor alpha (Homo sapiens); assay: Antagonist activity at PPARalpha ligand binding domain expressed in HEK293 cells co-expressing GAL4 assessed as inhibition of transactivation activity at 1 uM after 18 hrs by dual-luciferase assay relative to control; format: cell-based
# [12] = biological target: T1, Peroxisome proliferator-activated receptor alpha (Homo sapiens); assay: Antagonist activity at PPARalpha ligand binding domain expressed in HEK293 cells co-expressing GAL4 assessed as inhibition of transactivation activity at 10 uM after 18 hrs by dual-luciferase assay relative to control; format: cell-based
# [13] = biological target: T1, Peroxisome proliferator-activated receptor alpha (Homo sapiens); assay: Antagonist activity at PPARalpha ligand binding domain expressed in HEK293 cells co-expressing GAL4 assessed as inhibition of transactivation activity at 50 uM after 18 hrs by dual-luciferase assay relative to control; format: cell-based
# [14] = biological target: T1, Peroxisome proliferator-activated receptor alpha (Homo sapiens); assay: Antagonist activity at PPARalpha ligand binding domain expressed in HEK293 cells co-expressing GAL4 assessed as inhibition of transactivation activity at 100 uM after 18 hrs by dual-luciferase assay relative to control; format: cell-based
# [15] = biological target: T1, Peroxisome proliferator-activated receptor alpha (Homo sapiens); assay: Antagonist activity at PPARalpha ligand binding domain expressed in HEK293 cells co-expressing GAL4 assessed as inhibition of transactivation activity at 150 uM after 18 hrs by dual-luciferase assay relative to control; format: cell-based
# [16] = biological target: T1, Peroxisome proliferator-activated receptor alpha (Homo sapiens); assay: Antagonist activity at PPARalpha in human HepG2 cells assessed as inhibition of GW7647-induced CPT1A mRNA expression at 0.2 uM after 48 hrs by RT-PCR analysis relative to control; format: functional, cell-based
# [17] = biological target: T1, Peroxisome proliferator-activated receptor alpha (Homo sapiens); assay: Antagonist activity at PPARalpha in human HepG2 cells assessed as inhibition of GW7647-induced CPT1A mRNA expression at 2 uM after 48 hrs by RT-PCR analysis relative to control; format: functional, cell-based
# [18] = biological target: T1, Peroxisome proliferator-activated receptor alpha (Homo sapiens); assay: Antagonist activity at PPARalpha in human HepG2 cells assessed as inhibition of GW7647-induced CPT1A mRNA expression at 20 uM after 48 hrs by RT-PCR analysis relative to control; format: functional, cell-based
# [19] = biological target: T1, Peroxisome proliferator-activated receptor alpha (Homo sapiens); assay: Antagonist activity at PPARalpha in human HepG2 cells assessed as inhibition of GW7647-induced CPT1A mRNA expression after 48 hrs by RT-PCR analysis relative to control; format: functional, cell-based
# [20] = biological target: T1, Peroxisome proliferator-activated receptor alpha (Homo sapiens); assay: Antagonist activity at PPARalpha ligand binding domain expressed in HEK293 cells co-expressing GAL4 assessed as inhibition of GW7647-induced transactivation activity at 150 uM after 18 hrs by dual-luciferase assay relative to control; format: cell-based
SMILES,fold change (FC) [1],IC50 [2] [µM],fold change (FC) [3],fold change (FC) [4],other results
CC(C)(Oc1ccc(Cl)cc1)C(=O)O,1.6,,,,
CCCC(Sc1nc2cc(Cl)ccc2s1)C(=O)NS(=O)(=O)c1ccccc1 (racemic),0.09,22.2,0.248,0.235,
CC(C)C(Sc1nc2cc(Cl)ccc2s1)C(=O)NS(=O)(=O)c1ccccc1 (racemic),0.1,27.9,,,
CCCCC(Sc1nc2cc(Cl)ccc2s1)C(=O)NS(=O)(=O)c1ccccc1 (racemic),0.01,19.9,0.005,0.003,
CCCCCCC(Sc1nc2cc(Cl)ccc2s1)C(=O)NS(=O)(=O)c1ccccc1 (racemic),1.49,,,,EC50 [5]: 50.6 µM

# More lines, main results first:
fold change (FC) [1],IC50 [2] [µM],fold change (FC) [3],fold change (FC) [4],SMILES,other results
0.05,31,,,CCCC(Sc1nc2ccc(OCC)cc2s1)C(=O)NS(=O)(=O)c1ccccc1 (racemic),
0.01,6.5,0.005,0.005,O=C(NS(=O)(=O)c1ccccc1)C(Sc1nc2cc(Cl)ccc2s1)c1ccccc1 (racemic),inhibition [6]: Dose-dependent effect; fold change (FC) [7]: 3.8; fold change (FC) [8]: 2.14; fold change (FC) [9]: -0.63; fold change (FC) [10]: -0.1; fold change (FC) [11]: -0.78; fold change (FC) [12]: -0.23; fold change (FC) [13]: -0.03; fold change (FC) [14]: -0.03; fold change (FC) [15]: -0.01; fold change (FC) [16]: 3.59; fold change (FC) [17]: 2.36; fold change (FC) [18]: 1.68; inhibition [19]: Dose-dependent effect; fold change (FC) [20]: -0.09
0.89,,,,CCOc1ccc2nc(SC(C)C(=O)NS(=O)(=O)c3ccccc3)sc2c1 (racemic),
